Measured values reported in publication PMC11547015 (International Journal of Molecular Sciences, 2024).
Where “and” joins values, the source holds several entries; their conditions need not be identical. Identical values can stand only once. Entries after “also recorded” stand apart in the source; their conditions may differ. Like-named read-outs stand apart in the source and are kept apart here.

Molecular target: T1, human D2 receptor (Homo sapiens, UniProt P14416)
T1 construct: host or cells: CHO-K1
Test: Dopamine assay: functional cAMP read-out (HitHunter cAMP XS+, Gi/o agonist format)
Type: cell-based
Settings: for EC50: CHO-K1 cells overexpressing the human D2 receptor, cAMP read-out, 25 µM forskolin, n = 2 independent experiments; for dopaminergic activity (in words): isolated compounds, D2 receptor activity assay; for change in activity on the D2 receptor relative to 7: compared with 3-epi-maslinic acid (7)
Procedure: Dopaminergic activity was determined with a functional assay in CHO-K1 cells overexpressing the human D2 receptor, using a cAMP read-out (Eurofins DiscoverX Corporation, Fremont, CA, USA). The cells (5000 cells/cm^2) were seeded in a total volume of 20 μL onto white 384-well microplates and incubated at 37 °C for 18 h prior to testing. cAMP modulation was determined using the DiscoverX HitHunter cAMP XS+ assay. Since the D2 receptor couples mainly to Gi/o (inhibitory towards cAMP), the assay was run in Gi/o agonist format. In brief, the cells were incubated with the samples in the presence of 25 µM forskolin to induce a response. Medium was aspirated from cells and replaced with 10 µL HBSS/10 mM Hepes (assay buffer). Intermediate dilution of sample stocks was performed in the assay buffer to generate a concentration 4-fold higher (4×) than the final in-well concentration. A total of 5 µL of 4× sample was added to the cells, followed by 5 µL 4× EC80 forskolin in the assay buffer and incubated at 37 °C for 30 min. The final DMSO concentration (vehicle) was 1%. After appropriate compound incubation, the assay signal was generated through incubation with 5 µL of cAMP XS + Ab reagent followed by 20 μL cAMP XS + ED/CL lysis cocktail for one hour followed by incubation with 20 μL cAMP XS + EA reagent for three hours at room temperature. The microplates were read following signal generation with an Envision^TM instrument (PerkinElmer, Waltham, MA, USA) for chemiluminescent signal detection.
For Gi agonist mode assays, percentage activity was calculated using the following formula: % Activity = 100% × (1 − (mean RLU of test sample − mean RLU of MAX control)/(mean RLU of vehicle control − mean RLU of MAX control)). Concentration–response curves were generated using EC50 using Graphpad Prism version 9.0 (Graphpad Software, Boston, MA, USA), and curve fitting was performed using non-linear regression analysis applying the following variable slope equation: Y = Bottom + (Top − Bottom)/(1 + 10^((LogEC50 − X) × HillSlope)).

[1] = read-out: EC50 at the D2 receptor

T1 sequence (P14416 whole entry): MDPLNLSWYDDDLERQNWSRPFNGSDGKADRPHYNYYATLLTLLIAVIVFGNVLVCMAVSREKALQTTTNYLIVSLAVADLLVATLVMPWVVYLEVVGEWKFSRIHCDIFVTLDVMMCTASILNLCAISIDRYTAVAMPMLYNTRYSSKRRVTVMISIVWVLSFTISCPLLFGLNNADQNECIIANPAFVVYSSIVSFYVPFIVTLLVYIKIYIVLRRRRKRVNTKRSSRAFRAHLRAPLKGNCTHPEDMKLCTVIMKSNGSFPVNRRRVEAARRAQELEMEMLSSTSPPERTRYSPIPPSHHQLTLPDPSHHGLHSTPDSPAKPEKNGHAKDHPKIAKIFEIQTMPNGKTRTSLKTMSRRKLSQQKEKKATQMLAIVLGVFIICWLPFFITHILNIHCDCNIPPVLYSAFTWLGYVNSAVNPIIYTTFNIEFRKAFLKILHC

EC50 [1] | Compound | EC50 (EC50 at the D2 receptor) | dopaminergic activity (in words) | other results
≥ 50 µM | CC1(C)CC[C@]2(C(=O)O)CC[C@]3(C)C(=CC[C@@H]4[C@@]5(C)C[C@@H](O)[C@H](O)[C@@](C)(CO)[C@@H]5CC[C@]43C)[C@@H]2C1 [arjunolic acid, reference compound] | – | – | –
12.8 µM | CC(=O)O[C@@H]1C[C@@H](C)[C@](O)(CCc2ccoc2)[C@@]2(C)CCCC(C)(C)[C@H]12 [compound 2, Rotundifuran] | – | – | –
> 50 µM | CC(=O)O[C@@H]1C[C@@H](C)[C@](O)(CCC2=CC(=O)OC2)[C@@]2(C)CCCC(C)(C)[C@H]12 [compound 3, Vitexilactone] | – | – | –
24.3 µM | C=CC(C)(O)CC[C@@H]1[C@@]2(C)CCCC(C)(C)[C@@H]2CC[C@]1(C)O (stereo partly drawn) [compound 4, 8-epi-Sclareol] | – | either negligible or no dopaminergic activity; also recorded: either weak or no dopaminergic activity | –
> 50 µM | C=CC(C)(O)CC[C@H]1[C@@]2(C)CCCC(C)(C)[C@@H]2CC[C@@]1(C)O (stereo partly shown) [compound 5, Viteagnusin C] | – | either negligible or no dopaminergic activity; also recorded: either weak or no dopaminergic activity | –
> 50 µM | C[C@@H]1CC[C@]2(C(=O)O)CC[C@]3(C)C(=CC[C@@H]4[C@@]5(C)C[C@@H](O)[C@@H](O)C(C)(C)[C@@H]5CC[C@]43C)[C@@H]2[C@]1(C)O [compound 11, Euscaphic acid] | – | – | –
> 50 µM | C[C@@H]1CC[C@]2(C(=O)O)CC[C@]3(C)C(=CC[C@@H]4[C@@]5(C)C[C@@H](O)[C@H](O)C(C)(C)[C@@H]5CC[C@]43C)[C@@H]2[C@]1(C)O [compound 12, Tormentic acid] | – | – | –

More lines, now with the values behind:

Compound | EC50 [1] | EC50 (EC50 at the D2 receptor) | dopaminergic activity (in words) | other results
CC(=O)O[C@@H]1C[C@@H](C)[C@](O)(CCC2=CC(=O)OC2O)[C@@]2(C)CCCC(C)(C)[C@H]12 (stereo partly shown) [compound 1, Viteagnusin I] | – | 6.61 µM and 6.6 µM | – | IC50: 6.6 µM
C=CC(C)(O)CC[C@@]1(C)C2=C([C@H](OC(C)=O)[C@H](OC(C)=O)[C@H]1C)C(C)(C)CCC2 (stereo partly shown) [compound 6, Vitetrifolin D] | – | > 50 µM | either negligible or no dopaminergic activity; also recorded: either weak or no dopaminergic activity | –
CC1(C)CC[C@]2(C(=O)O)CC[C@]3(C)C(=CC[C@@H]4[C@@]5(C)C[C@@H](O)[C@@H](O)C(C)(C)[C@@H]5CC[C@]43C)[C@@H]2C1 [compound 7, 3-epi-Maslinic acid] | – | 5.1 µM | active | –
CC1(C)CC[C@]2(C(=O)O)CC[C@]3(C)C(=CC[C@@H]4[C@@]5(C)C[C@@H](O)[C@H](O)C(C)(C)[C@@H]5CC[C@]43C)[C@@H]2C1 [compound 8, Maslinic acid] | – | 21.3 µM | active | change in activity on the D2 receptor relative to 7: 4 fold
C[C@H]1[C@H](C)CC[C@]2(C(=O)O)CC[C@]3(C)C(=CC[C@@H]4[C@@]5(C)C[C@@H](O)[C@@H](O)C(C)(C)[C@@H]5CC[C@]43C)[C@H]12 [compound 9, 3-epi-Corosolic acid] | – | 10.7 µM | active | change in activity on the D2 receptor relative to 7: 2 fold
C[C@H]1[C@H](C)CC[C@]2(C(=O)O)CC[C@]3(C)C(=CC[C@@H]4[C@@]5(C)C[C@@H](O)[C@H](O)C(C)(C)[C@@H]5CC[C@]43C)[C@H]12 [compound 10, Corosolic acid] | – | > 50 µM | – | change in activity on the D2 receptor relative to 9 (epimers 9 and 10, differing at C3): > 5 fold
CC1(C)CC[C@]2(C(=O)O)CC[C@]3(C)C(=CC[C@@H]4[C@@]5(C)CC[C@H](O)C(C)(C)[C@@H]5CC[C@]43C)[C@@H]2C1 [oleanolic acid, reference compound] | – | ≥ 50 µM | – | –
C[C@H]1[C@H](C)CC[C@]2(C(=O)O)CC[C@]3(C)C(=CC[C@@H]4[C@@]5(C)CC[C@H](O)C(C)(C)[C@@H]5CC[C@]43C)[C@H]12 [ursolic acid, reference compound] | ≥ 50 µM | – | – | –
